The source of these data is paper PMC2889615 (Biochemistry, 2010).

The target in one series is T1, PODANSg2158 (Podospora anserina, UniProt B2AM55).
T1 sequence (B2AM55 1-430): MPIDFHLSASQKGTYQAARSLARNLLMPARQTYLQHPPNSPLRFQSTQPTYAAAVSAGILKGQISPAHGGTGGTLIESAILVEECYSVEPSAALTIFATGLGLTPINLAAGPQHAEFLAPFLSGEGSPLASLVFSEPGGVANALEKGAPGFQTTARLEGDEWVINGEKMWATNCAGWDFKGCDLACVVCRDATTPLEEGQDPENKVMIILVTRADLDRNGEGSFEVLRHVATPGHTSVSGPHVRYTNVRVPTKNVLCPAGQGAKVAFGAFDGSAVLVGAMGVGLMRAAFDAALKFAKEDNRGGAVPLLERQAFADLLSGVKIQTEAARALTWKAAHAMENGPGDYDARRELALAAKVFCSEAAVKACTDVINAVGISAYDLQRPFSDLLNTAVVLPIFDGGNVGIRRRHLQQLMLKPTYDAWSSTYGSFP
Briefly: X-ray crystal structure, […] Å. In kind it is binding. The note with it: wild-type enzyme; FAD in each of four subunits; pH 6 crystals.

The next series has as its target Asp402 (UniProt position 402, CYPLFDGGNIG). Briefly: kinetics. As to conditions: free enzyme; substrate nitroethane; cited from earlier work.

Consider `Cc1cc2nc3c(=O)[nH]c(=O)nc-3n(C[C@H](O)[C@H](O)[C@H](O)COP(=O)(O)OP(=O)(O)OC[C@H]3O[C@@H](n4cnc5c(N)ncnc54)[C@H](O)[C@@H]3O)c2cc1C` [FAD], for which the “X-ray crystal structure, 2.0 Å” value on PODANSg2158 was “FAD could be clearly identified in each of the subunits”.
What is called pKa is the negative logarithm of the acid dissociation constant. On to “Nitroalkane oxidase (NAO) (Fusarium oxysporum)”, for which the pKa in the series with Asp402 was 6.9.
